Data taken from patent US12582697B2, “Antisecretory factor for use in treatment and/or prevention of acute respiratory failure” (LANTMÄNNEN MEDICAL AB, priority 2018, dated 2026).
Where a SMILES comes first, the peptide text is derived from it.

System: adult pigs with experimentally induced ARDS
Experiment: ARDS model: adverse side effects on cardiovascular parameters
Type: in vivo, pig
Settings: iv infusion 2 mg/kg, anaesthetized pigs
Experimental: After ethical approval, 3 months old pigs (body weight 30-35 kg), in all 12, were purchased from a local farm and 2 pigs on 6 occasions brought to the laboratory in the morning on the day for the experiment. […] Upon arrival, the pigs were sedated and thereafter kept fully anaesthetized during the entire experiment until termination late the same day. Tracheostomy was performed and mechanical ventilation performed with a ventilator. This setup is visualized in FIG. 1. Tubes positioned in arteries, veins and via a vein also in the right heart. Equipment was implanted to enable the use of PiCCO instrument (Pulse index, Continuous Cardiac Output=PiCCO) in order to enable exact determination of the total blood volume in the lungs, extra-vascular lung water (EVLW) and cardiac function parameters. Blood pressure transducers were inserted in the pulmonary artery and in a central artery. Arterial blood gasses and additional blood parameters were checked at regular intervals. Oximetry was used to determine hemoglobin oxygen saturation in arterial blood. The core body temperature was kept automatically at desired normal level. EKG was recorded. […]
Treatment with the peptide AF-16 or the vehicle started after the induction of the lung injury (i.e., after the injurious ventilation). […] The PiCCO values were determined once every hour for up to 4 hours after the infusion of the test substance. […]

CC(C)C[C@H](NC(=O)CNC(=O)[C@@H](NC(=O)[C@H](CC(N)=O)NC(=O)[C@H](CC(N)=O)NC(=O)[C@H](CCC(=O)O)NC(=O)[C@@H]1CCCN1C(=O)[C@H](CC(N)=O)NC(=O)[C@H](CO)NC(=O)[C@H](CCCNC(=N)N)NC(=O)[C@@H](NC(=O)[C@H](CCCCN)NC(=O)[C@H](CO)NC(=O)[C@H](Cc1c[nH]cn1)NC(=O)[C@H](CS)NC(=O)[C@@H](N)C(C)C)[C@@H](C)O)C(C)C)C(=O)O [AF-16, VCHSKTRSNPENNVGL] (H-VCHSKTRSNPENNVGL-OH; N-terminus and C-terminus assumed)
adverse side effects on cardiovascular parameters, including blood pressure and heart rates: no adverse side effects could be demonstrated
